Data on 22 compounds can be found in patent US10696692B2, “Amido-benzyl sulfone and sulfoxide derivates” (Forma TM, LLC, priority 2012, dated 2020).

One assay has as its target NAMPT (Homo sapiens (Human), UniProt P43490). The experiment in a line: Assay 1: Biochemical Inhibition Assay (NAMPT enzymatic reaction, NMN quantified by mass spectrometry).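 Also: recombinant His-tagged human NAMPT preincubated with compound 15 min, then reacted 30 min at rt with 1 µM NAM, 100 µM PRPP, 2.5 mM ATP, NMN product read by RapidFire MS, normalized to L-Cystathionine internal standard.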
A further assay concerns A2780 cells. The experiment in a line: Assay 2: In-Vitro Cell Proliferation Assay (A2780 cells, SRB readout, 72 hours).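 Also: viable cells counted via sulforhodamine B staining, absorbance at 570 nm, after 72 h exposure at 37 °C, DMSO 0.1% as control, media-only background subtracted.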 The format is cell-based. The note with it: read-out: Cell Proliferation (IC50).
[1] abbreviates: Homo sapiens, A2780, 72 h, A2780 cells, 72 hours, SRB.

Where two headings read alike, the source gives them in different places.

Chain of NAMPT (P43490 whole entry): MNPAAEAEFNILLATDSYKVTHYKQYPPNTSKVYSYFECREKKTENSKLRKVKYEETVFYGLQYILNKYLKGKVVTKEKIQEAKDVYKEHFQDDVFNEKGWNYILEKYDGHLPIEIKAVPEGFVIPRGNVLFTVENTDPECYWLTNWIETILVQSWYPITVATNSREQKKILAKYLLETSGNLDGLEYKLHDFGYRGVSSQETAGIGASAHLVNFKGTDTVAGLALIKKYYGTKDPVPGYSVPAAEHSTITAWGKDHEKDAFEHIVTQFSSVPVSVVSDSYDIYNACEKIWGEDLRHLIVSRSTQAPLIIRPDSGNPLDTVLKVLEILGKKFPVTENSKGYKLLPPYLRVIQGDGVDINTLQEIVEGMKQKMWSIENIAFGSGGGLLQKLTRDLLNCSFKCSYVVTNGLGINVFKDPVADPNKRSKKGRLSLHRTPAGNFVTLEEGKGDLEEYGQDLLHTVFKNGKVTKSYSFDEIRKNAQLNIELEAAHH

Turning to `O=C(NCc1ccc(S(=O)(=O)N2CCC3(CCCN3)C2)cc1)c1ccc2nccn2c1` (centres unmarked) [Example 255, N-[[4-(1,7-diazaspiro[4.4]nonan-7-sulfonyl)phenyl]methyl] imidazo[1,2-a]pyridine-6-carboxamide], the IC50 is 57 nM on NAMPT (read-out: Biochemical (IC50)) and 36.2 nM with A2780 cells (setting [1]).

Turning to `O=C(NCc1ccc(S(=O)(=O)N2CCCCC2)cc1)c1ccc2ncnn2c1` [Example 45, [1,2,4]Triazolo[1,5-a]pyridine-6-carboxylic acid 4-(piperidine-1-sulfonyl)-benzylamide], the values for the IC50 on NAMPT (read-out: Biochemical (IC50)) and in the assay with A2780 cells (setting [1]) were 17.2 nM and 1000 nM, respectively.

For `CC(=O)N1CCCC(S(=O)(=O)c2ccc(CNC(=O)c3cnc4[nH]ncc4c3)cc2)C1` (centres unmarked) [Example 347, N-[[4-[(1-acetyl-3-piperidyl)sulfonyl]phenyl]methyl]-1H-pyrazolo[3,4-b]pyridine-5-carboxamide], the results for the IC50 at NAMPT (read-out: Biochemical (IC50)) and in the assay on A2780 cells (setting [1]) were 381 nM and 640 nM, respectively.

On to `N#CCC1CCN(S(=O)(=O)c2ccc(CNC(=O)c3cc4ccncc4o3)cc2)CC1` [Example 13], for which the IC50 on NAMPT (read-out: Biochemical (IC50)) is 12.6 nM; with A2780 cells (setting [1]), 33.8 nM.

Take `CC(C)CN1CCC([S+]([O-])c2ccc(CNC(=O)c3cnc4[nH]ncc4c3)cc2)CC1` (centres unmarked) [Example 190, N-[[4-[(1-isobutyl-4-piperidyl)sulfinyl]phenyl]methyl]-1H-pyrazolo[3,4-b]pyridine-5-carboxamide]: the IC50 on NAMPT (read-out: Biochemical (IC50)) is 130 nM; in the assay with A2780 cells (setting [1]) it was 23 nM.

On to `O=C(NCc1ccc(S(=O)(=O)N2C3COCC2CC(O)C3)cc1)c1ccc2nccn2c1` (racemic) [Example 140, cis-Imidazo[1,2-a]pyridine-6-carboxylic acid 4-(7-hydroxy-3-oxa-9-aza-bicyclo[3.3.1]nonane-9-sulfonyl)-benzylamide], for which the IC50 was determined as 46.4 nM against NAMPT (Biochemical (IC50)) and 14.1 nM in the assay on A2780 cells (Homo sapiens, A2780, 72 h).

In the case of `O=C(NCc1ccc(S(=O)(=O)N2CCN(C3CCCCC3)CC2)cc1)c1ccc2nccn2c1` [Example 40, Imidazo[1,2-a]pyridine-6-carboxylic acid 4-(4-cyclohexyl-piperazine-1-sulfonyl)-benzylamide], the values for the IC50 at NAMPT (read-out: Biochemical (IC50)) and in the assay with A2780 cells (setting [1]) were 17.1 nM and 6.9 nM, respectively.

Consider `CC(C)CN1CCC([S+]([O-])c2ccc(CNC(=O)N3Cc4ccncc4C3)cc2)CC1` (centres unmarked) [Example 374, N-[(4-[(1-isobutyl-4-piperidyl)sulfinyl]phenyl]methyl]-1,3-dihydropyrrolo[3,4-c]pyridine-2-carboxamide], for which the IC50 on NAMPT (read-out: Biochemical (IC50)) was found to be 15.2 nM; in the assay with A2780 cells (setting [1]), 2.83 nM.

In the case of `CC(C)(C)OC(=O)N1CCCCC12CCCN(S(=O)(=O)c1ccc(CNC(=O)c3ccc4nccn4c3)cc1)C2` (racemic) [Example 123], the figures for the IC50 on NAMPT (read-out: Biochemical (IC50)) and in the assay on A2780 cells (setting [1]) were 37.4 nM and 17.2 nM, respectively.

Take `O=C(NCc1ccc(S(=O)(=O)N2CC3CNCC(C2)O3)cc1)c1ccc2nccn2c1` [Example 333, N-[[4-(9-oxa-3,7-diazabicyclo[3.3.1]nonan-3-ylsulfonyl)phenyl]methyl] imidazo[1,2-a]pyridine-6-carboxamide]: the IC50 on NAMPT (read-out: Biochemical (IC50)) is 320 nM; in the assay on A2780 cells (setting [1]), 286 nM.

`O=C(NCc1ccc(S(=O)(=O)C2CCCOC2)cc1)c1cc2ccncc2o1` (racemic) [Example 168, Furo[2,3-c]pyridine-2-carboxylic acid 4-(tetrahydro-pyran-3-sulfonyl)-benzylamide]: the IC50 on NAMPT (read-out: Biochemical (IC50)) is 30.4 nM; with A2780 cells (setting [1]), 50.3 nM.

Consider “Imidazo[1,2-a]pyridine-6- carboxylic acid 4-[4- (tetrahydro-pyran-4-yl)- piperazine-1-sulfonyl]- benzylamide [Example 59]”, for which the IC50 was 10.7 nM at NAMPT (read-out: Biochemical (IC50)) and 3 nM with A2780 cells (A2780 cells, 72 hours, SRB).

As for `O=C(NCc1ccc(S(=O)(=O)C2CCN(C(=O)c3ccccc3)C2)cc1)c1cnc2[nH]ncc2c1` (centres unmarked) [Example 351, N-[[4-(1-benzoylpyrrolidin-3-yl)sulfonylphenyl]methyl]-1H-pyrazolo[3,4-b]pyridine-5-carboxamide], the IC50 was found to be 71.1 nM at NAMPT (read-out: Biochemical (IC50)) and 107 nM with A2780 cells (setting [1]).

For `CCN1CCC([S+]([O-])c2ccc(CNC(=O)c3cc4ccncc4o3)cc2)CC1` (centres unmarked) [Example 380, N-[[4-[(1-ethyl-4-piperidyl)sulfinyl]phenyl]methyl]furo[2,3-c]pyridine-2-carboxamide], the values for the IC50 on NAMPT (read-out: Biochemical (IC50)) and in the assay with A2780 cells (setting [1]) were 68.3 nM and 499 nM, respectively.

For `CN1C2COCC1CN(S(=O)(=O)c1ccc(CNC(=O)c3ccc4nccn4c3)cc1)C2` (racemic) [Example 162, cis-Imidazo[1,2-a]pyridine-6-carboxylic acid 4-(9-methyl-3-oxa-7,9-diaza-bicyclo[3.3.1]nonane-7-sulfonyl)-benzylamide], the IC50 came out at 122 nM on NAMPT (Biochemical (IC50)) and 59.8 nM with A2780 cells (Homo sapiens, A2780, 72 h).

`CN1CCCC12CN(S(=O)(=O)c1ccc(CNC(=O)c3ccc4nccn4c3)cc1)C2` [Example 273, N-[[4-[(5-methyl-2,5-diazaspiro[3.4]octan-2-yl)sulfonyl)phenyl]methyl] imidazo[1,2-a]pyridine-6-carboxamide]: the IC50 at NAMPT (read-out: Biochemical (IC50)) was 25.4 nM; in the assay on A2780 cells (setting [1]), 10.4 nM.

In the case of `O=C(NCc1ccc([S+]([O-])C2CCN(CC(F)(F)F)CC2)cc1)c1ccc2nccn2c1` (centres unmarked) [Example 364, N-[[4-[[1-(2,2,2-tnfluoroethyl)-4-piperidyl]sulfinyl]phenyl]methyl]imidazo[1,2-a]pyridine-6-carboxamide], the IC50 came to 2.93 nM at NAMPT (read-out: Biochemical (IC50)) and 3.51 nM with A2780 cells (setting [1]).

Take `O=C(NCc1ccc(S(=O)(=O)N2CCC3(CCCO3)C2)cc1)c1cc2ccncc2o1` (centres unmarked) [Example 303, N-[[4-(1-oxa-7-azaspiro[4.4]nonan-7-ylsulfonyl)phenyl]methyl]furo [2.3-c]pyridine-2-carboxamide]: the values for the IC50 on NAMPT (read-out: Biochemical (IC50)) and with A2780 cells (setting [1]) were 22.7 nM and 15.4 nM, respectively.

Consider `CC(C)(C)OC(=O)N1C[C@H]2CCN(S(=O)(=O)c3ccc(CNC(=O)c4ccc5nccn5c4)cc3)[C@H]2C1` (racemic) [Example 135, cis-1-(4-{[(Imidazo[1,2-a]pyridine-6-carbonyl)-amino]-methyl}-benzenesulfonyl)-hexahydro-pyrrolo[3,4-b]pyrrole-5-carboxylic acid tert-butyl ester], for which the IC50 at NAMPT (read-out: Biochemical (IC50)) was found to be 20.2 nM; in the assay with A2780 cells (setting [1]) it was 5.52 nM.

`O=C(NCc1ccc(S(=O)(=O)N2CC3CCC(C2)O3)cc1)c1cc2ccncc2o1` [Example 305, N-[[4-(8-oxa-3-azabicyclo[3.2.1]octan-3-ylsulfonyl)phenyl]methyl]furo [2,3-c]pyridine-2-carboxamide]: the IC50 at NAMPT (read-out: Biochemical (IC50)) came out at 41.4 nM; in the assay with A2780 cells (setting [1]), 17.8 nM.

With `O=C(NCc1ccc(S(=O)(=O)N2CCCC3(CCCCN3)C2)cc1)c1ccc2nccn2c1` (centres unmarked) [Example 336, N-[[4-(1,8-diazaspiro[5.5]undecan-8-ylsulfonyl)phenyl]methyl] imidazo[1,2-a]pyridine-6-carboxamide], the IC50 on NAMPT (read-out: Biochemical (IC50)) stood at 379 nM; in the assay on A2780 cells (A2780 cells, 72 hours, SRB), 399 nM.

For `CC(C)(C)OC(=O)N1CCC2(CCCN(S(=O)(=O)c3ccc(CNC(=O)c4ccc5nccn5c4)cc3)C2)C1` (racemic) [Example 102, 7-(4-{[(Imidazo[1,2-a]pyridine-6-carbonyl)-amino]-methyl}-benzenesulfonyl)-2,7-diaza-spiro[4.5]decane-2-carboxylic acid tert-butyl ester], the IC50 on NAMPT (read-out: Biochemical (IC50)) is 34.5 nM; in the assay with A2780 cells (setting [1]) it was 5.1 nM.
